{
  "source": "ChEMBL document CHEMBL2021858",
  "about": "“The effect of vindoline C-16 substituents on the biomimetic coupling reaction: synthesis and cytotoxicity evaluation of the corresponding vinorelbine analogues” (Bioorg Med Chem Lett, 2012)",
  "key": {"HeLa": {"tested_on": "HeLa", "experiment": "Cytotoxicity against human HeLa cells by MTT assay", "assay_type": "functional, cell-based"}, "A549": {"tested_on": "A549", "experiment": "Cytotoxicity against human A549 cells by MTT assay", "assay_type": "functional, cell-based"}},
  "data": [
    {"smiles": "CCC1=C[C@@H]2CN(C1)Cc1c([nH]c3ccccc13)[C@@](C(=O)OC)(c1cc3c(cc1OC)N(C)[C@H]1[C@@](O)(C(=O)OC)[C@H](OC(C)=O)[C@]4(CC)C=CCN5CC[C@]31[C@@H]54)C2", "note": "[VINORELBINE]", "values": [
      {"measurement": "IC50", "setting": "HeLa", "value": 9, "unit": "nM"},
      {"measurement": "IC50", "setting": "A549", "value": 10, "unit": "nM"}
    ]},
    {"smiles": "CCC1=C[C@@H]2CN(C1)Cc1c([nH]c3ccccc13)[C@@](C(=O)OC)(c1cc3c(cc1OC(C)=O)N(C)[C@H]1[C@@](O)(COC(C)=O)[C@H](OC(C)=O)[C@]4(CC)C=CCN5CC[C@]31[C@@H]54)C2", "values": [
      {"measurement": "IC50", "setting": "HeLa", "value": 49, "unit": "nM"},
      {"measurement": "IC50", "setting": "A549", "value": 56, "unit": "nM"}
    ]},
    {"smiles": "CCC1=C[C@@H]2CN(C1)Cc1c([nH]c3ccccc13)[C@@](C(=O)OC)(c1cc3c(cc1OC(C)C)N(C)[C@H]1[C@@](O)(COC(C)=O)[C@H](OC(C)=O)[C@]4(CC)C=CCN5CC[C@]31[C@@H]54)C2", "values": [
      {"measurement": "IC50", "setting": "HeLa", "value": 209, "unit": "nM"},
      {"measurement": "IC50", "setting": "A549", "value": 236, "unit": "nM"}
    ]},
    {"smiles": "CCC1=C[C@@H]2CN(C1)Cc1c([nH]c3ccccc13)[C@@](C(=O)OC)(c1cc3c(cc1OCCOC(C)=O)N(C)[C@H]1[C@@](O)(COC(C)=O)[C@H](OC(C)=O)[C@]4(CC)C=CCN5CC[C@]31[C@@H]54)C2", "values": [
      {"measurement": "IC50", "setting": "HeLa", "value": 77, "unit": "nM"},
      {"measurement": "IC50", "setting": "A549", "value": 83, "unit": "nM"}
    ]},
    {"smiles": "CCCCOc1cc2c(cc1[C@@]1(C(=O)OC)C[C@@H]3C=C(CC)CN(Cc4c1[nH]c1ccccc41)C3)[C@@]13CCN4CC=C[C@@](CC)([C@@H](OC(C)=O)[C@](O)(COC(C)=O)[C@@H]1N2C)[C@H]43", "values": [
      {"measurement": "IC50", "setting": "HeLa", "value": 89, "unit": "nM"},
      {"measurement": "IC50", "setting": "A549", "value": 94, "unit": "nM"}
    ]},
    {"smiles": "CCOc1cc2c(cc1[C@@]1(C(=O)OC)C[C@@H]3C=C(CC)CN(Cc4c1[nH]c1ccccc41)C3)[C@@]13CCN4CC=C[C@@](CC)([C@@H](OC(C)=O)[C@](O)(COC(C)=O)[C@@H]1N2C)[C@H]43", "values": [
      {"measurement": "IC50", "setting": "HeLa", "value": 11, "unit": "nM"},
      {"measurement": "IC50", "setting": "A549", "value": 13, "unit": "nM"}
    ]},
    {"smiles": "CCC1=C[C@@H]2CN(C1)Cc1c([nH]c3ccccc13)[C@@](C(=O)OC)(c1cc3c(cc1OC)N(C)[C@H]1[C@@](O)(COC(C)=O)[C@H](OC(C)=O)[C@]4(CC)C=CCN5CC[C@]31[C@@H]54)C2", "values": [
      {"measurement": "IC50", "setting": "HeLa", "value": 5, "unit": "nM"},
      {"measurement": "IC50", "setting": "A549", "value": 7, "unit": "nM"}
    ]},
    {"smiles": "CCCOc1cc2c(cc1[C@@]1(C(=O)OC)C[C@@H]3C=C(CC)CN(Cc4c1[nH]c1ccccc41)C3)[C@@]13CCN4CC=C[C@@](CC)([C@@H](OC(C)=O)[C@](O)(COC(C)=O)[C@@H]1N2C)[C@H]43", "values": [
      {"measurement": "IC50", "setting": "HeLa", "value": 45, "unit": "nM"},
      {"measurement": "IC50", "setting": "A549", "value": 51, "unit": "nM"}
    ]},
    {"smiles": "CCCCCCCOc1cc2c(cc1[C@@]1(C(=O)OC)C[C@@H]3C=C(CC)CN(Cc4c1[nH]c1ccccc41)C3)[C@@]13CCN4CC=C[C@@](CC)([C@@H](OC(C)=O)[C@](O)(COC(C)=O)[C@@H]1N2C)[C@H]43", "values": [
      {"measurement": "IC50", "setting": "HeLa", "value": 317, "unit": "nM"},
      {"measurement": "IC50", "setting": "A549", "value": 331, "unit": "nM"}
    ]}
  ]
}
